The source of these data is PubChem BioAssay (NCI).

The structures appear in SMILES notation.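 Exposure lasted 48 hours, with cells grown in 96-well plates and compounds tested at five concentrations. At the TGI there is no net growth.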 A value given as a limit tells only on which side of the number the result lay.

Test systems include BT-549 breast; IGROV1 ovarian; MCF7 breast; MOLT-4 leukemia; NCI/ADR-RES ovarian; OVCAR-3 ovarian; OVCAR-8 ovarian; SNB-75 CNS; SW-620 colon; T-47D breast.
What all share (assay): NCI tumour cell line growth inhibition, 48 h

For `O=C1N=c2ccccc2=C1c1c(O)[nH]c2ccccc12`, the TGI in the assay with BT-549 breast was 96.2 µM; with IGROV1 ovarian, > 100 µM; in the assay with MCF7 breast it was 25.3 µM; in the assay with MOLT-4 leukemia it was > 100 µM; with NCI/ADR-RES ovarian it was 48.2 µM; with OVCAR-3 ovarian, 41.1 µM. Also, the TGI is 66.7 µM in the assay on OVCAR-8 ovarian, 35 µM in the assay on SNB-75 CNS, > 100 µM with SW-620 colon and 3.77 µM with T-47D breast.

`COc1ccc(N=C2SC(=N/N=c3\sc4ccccc4n3C)SC2=Nc2ccc(OC)cc2)cc1`: the TGI in the assay on BT-549 breast, in the assay on IGROV1 ovarian, in the assay with MCF7 breast, in the assay with MOLT-4 leukemia, in the assay on NCI/ADR-RES ovarian and in the assay on OVCAR-3 ovarian was > 100 µM throughout. Besides, the TGI in the assay with OVCAR-8 ovarian is > 100 µM; with SNB-75 CNS, 94.5 µM; with SW-620 colon, > 100 µM; with T-47D breast, > 100 µM.
